Numbers after ± are expanded uncertainties.
Assay: xn = mol fraction of the nth substance listed
Details: Liquid, Vibrating tube method

CCC(=O)OC [methyl propanoate] + CCCCCCC
Details	mass density [kg/m3]
288.15 K, x1 = 0.0584	696.1 ± 0.27
288.15 K, x1 = 0.1524	710.11 ± 0.29
288.15 K, x1 = 0.2121	719.49 ± 0.31
288.15 K, x1 = 0.2626	728.22 ± 0.33
288.15 K, x1 = 0.2841	731.88 ± 0.34
288.15 K, x1 = 0.3577	745.5 ± 0.37
288.15 K, x1 = 0.4021	754.13 ± 0.39
288.15 K, x1 = 0.4565	765.31 ± 0.41
288.15 K, x1 = 0.5036	775.51 ± 0.44
288.15 K, x1 = 0.5554	787.28 ± 0.47
288.15 K, x1 = 0.6032	798.81 ± 0.5
288.15 K, x1 = 0.651	810.73 ± 0.53
288.15 K, x1 = 0.7008	824.05 ± 0.57
288.15 K, x1 = 0.742	835.61 ± 0.61
288.15 K, x1 = 0.7927	850.46 ± 0.66
288.15 K, x1 = 0.8457	866.96 ± 0.71
288.15 K, x1 = 0.953	903.48 ± 0.84
288.15 K, x1 = 1	921.21 ± 0.89
298.15 K, x1 = 0.0606	687.94 ± 0.27
298.15 K, x1 = 0.1046	694.01 ± 0.28
298.15 K, x1 = 0.1706	703.97 ± 0.3
298.15 K, x1 = 0.2332	713.99 ± 0.32
298.15 K, x1 = 0.2863	722.89 ± 0.34
298.15 K, x1 = 0.332	730.95 ± 0.35
298.15 K, x1 = 0.3827	740.59 ± 0.37
298.15 K, x1 = 0.4242	748.73 ± 0.39
298.15 K, x1 = 0.4831	760.98 ± 0.42
298.15 K, x1 = 0.5328	771.82 ± 0.45
298.15 K, x1 = 0.5887	784.89 ± 0.49
298.15 K, x1 = 0.6395	797.24 ± 0.52
298.15 K, x1 = 0.6831	808.46 ± 0.55
298.15 K, x1 = 0.733	821.94 ± 0.59
298.15 K, x1 = 0.7758	834.28 ± 0.63
298.15 K, x1 = 0.8196	847.29 ± 0.67
298.15 K, x1 = 0.8646	861.68 ± 0.72
298.15 K, x1 = 0.9035	874.46 ± 0.76
298.15 K, x1 = 0.9591	893.83 ± 0.83
298.15 K, x1 = 1	909.1 ± 0.88
308.15 K, x1 = 0.046	676.88 ± 0.27
308.15 K, x1 = 0.0974	683.97 ± 0.28
308.15 K, x1 = 0.1499	691.6 ± 0.29
308.15 K, x1 = 0.2093	700.71 ± 0.31
308.15 K, x1 = 0.2472	706.83 ± 0.32
308.15 K, x1 = 0.2655	709.84 ± 0.33
308.15 K, x1 = 0.3021	716.16 ± 0.34
308.15 K, x1 = 0.3462	723.99 ± 0.36
308.15 K, x1 = 0.3973	733.51 ± 0.38
308.15 K, x1 = 0.4379	741.49 ± 0.4
308.15 K, x1 = 0.5001	754.33 ± 0.43
308.15 K, x1 = 0.5482	764.86 ± 0.46
308.15 K, x1 = 0.6013	777.11 ± 0.49
308.15 K, x1 = 0.6438	787.52 ± 0.52
308.15 K, x1 = 0.7002	801.92 ± 0.56
308.15 K, x1 = 0.7516	815.93 ± 0.6
308.15 K, x1 = 0.7947	828.3 ± 0.64
308.15 K, x1 = 0.8541	846.5 ± 0.7
308.15 K, x1 = 0.8904	858.19 ± 0.74
308.15 K, x1 = 0.9494	878.31 ± 0.81
308.15 K, x1 = 1	896.91 ± 0.86
318.15 K, x1 = 0.054	669.26 ± 0.27
318.15 K, x1 = 0.1006	675.53 ± 0.28
318.15 K, x1 = 0.1635	684.64 ± 0.29
318.15 K, x1 = 0.1984	689.88 ± 0.3
318.15 K, x1 = 0.2627	699.98 ± 0.32
318.15 K, x1 = 0.2892	704.22 ± 0.33
318.15 K, x1 = 0.3492	714.64 ± 0.36
318.15 K, x1 = 0.3962	723.32 ± 0.38
318.15 K, x1 = 0.4482	733.48 ± 0.4
318.15 K, x1 = 0.5006	744.15 ± 0.42
318.15 K, x1 = 0.554	755.69 ± 0.45
318.15 K, x1 = 0.5928	764.54 ± 0.48
318.15 K, x1 = 0.6531	779.07 ± 0.52
318.15 K, x1 = 0.7022	791.53 ± 0.55
318.15 K, x1 = 0.7463	803.36 ± 0.59
318.15 K, x1 = 0.796	817.45 ± 0.63
318.15 K, x1 = 0.8421	831.26 ± 0.67
318.15 K, x1 = 0.8911	846.73 ± 0.72
318.15 K, x1 = 0.9487	866.17 ± 0.79
318.15 K, x1 = 1	884.71 ± 0.84
328.15 K, x1 = 0.0434	659.02 ± 0.27
328.15 K, x1 = 0.1	666.42 ± 0.28
328.15 K, x1 = 0.1539	673.86 ± 0.29
328.15 K, x1 = 0.2137	682.78 ± 0.31
328.15 K, x1 = 0.263	690.45 ± 0.32
328.15 K, x1 = 0.361	707.07 ± 0.36
328.15 K, x1 = 0.3858	711.54 ± 0.37
328.15 K, x1 = 0.4619	725.95 ± 0.4
328.15 K, x1 = 0.5057	734.85 ± 0.42
328.15 K, x1 = 0.5548	745.3 ± 0.45
328.15 K, x1 = 0.6006	755.62 ± 0.48
328.15 K, x1 = 0.6513	767.59 ± 0.51
328.15 K, x1 = 0.7013	780.04 ± 0.54
328.15 K, x1 = 0.7484	792.52 ± 0.58
328.15 K, x1 = 0.7954	805.67 ± 0.62
328.15 K, x1 = 0.8441	820.03 ± 0.66
328.15 K, x1 = 0.8954	836.18 ± 0.72
328.15 K, x1 = 0.9351	849.33 ± 0.76
328.15 K, x1 = 1	872.22 ± 0.83

CCC(=O)OC [methyl propanoate] + CCCCCCCCC
Details	mass density [kg/m3]
288.15 K, x1 = 0.0638	727.45 ± 0.26
288.15 K, x1 = 0.0962	730.67 ± 0.27
288.15 K, x1 = 0.1483	736.11 ± 0.29
288.15 K, x1 = 0.2104	743.23 ± 0.31
288.15 K, x1 = 0.2364	746.3 ± 0.32
288.15 K, x1 = 0.2979	754.2 ± 0.34
288.15 K, x1 = 0.3526	761.75 ± 0.36
288.15 K, x1 = 0.4001	768.71 ± 0.39
288.15 K, x1 = 0.4322	773.78 ± 0.4
288.15 K, x1 = 0.4985	784.9 ± 0.44
288.15 K, x1 = 0.5504	794.42 ± 0.47
288.15 K, x1 = 0.5954	803.25 ± 0.5
288.15 K, x1 = 0.6449	813.66 ± 0.53
288.15 K, x1 = 0.693	824.65 ± 0.57
288.15 K, x1 = 0.7454	837.57 ± 0.61
288.15 K, x1 = 0.7911	849.84 ± 0.65
288.15 K, x1 = 0.8391	863.79 ± 0.7
288.15 K, x1 = 0.8911	880.25 ± 0.76
288.15 K, x1 = 0.9477	900.31 ± 0.83
288.15 K, x1 = 1	921.21 ± 0.89
298.15 K, x1 = 0.0519	718.48 ± 0.26
298.15 K, x1 = 0.1041	723.58 ± 0.27
298.15 K, x1 = 0.1448	727.66 ± 0.29
298.15 K, x1 = 0.1889	732.52 ± 0.3
298.15 K, x1 = 0.2498	739.65 ± 0.32
298.15 K, x1 = 0.2949	745.26 ± 0.34
298.15 K, x1 = 0.3489	752.48 ± 0.36
298.15 K, x1 = 0.409	761.11 ± 0.39
298.15 K, x1 = 0.4474	767.1 ± 0.41
298.15 K, x1 = 0.5033	776.37 ± 0.44
298.15 K, x1 = 0.6015	794.61 ± 0.49
298.15 K, x1 = 0.6609	807.17 ± 0.54
298.15 K, x1 = 0.7048	817.21 ± 0.57
298.15 K, x1 = 0.751	828.64 ± 0.61
298.15 K, x1 = 0.7937	839.79 ± 0.65
298.15 K, x1 = 0.8444	854.36 ± 0.7
298.15 K, x1 = 0.9002	871.96 ± 0.76
298.15 K, x1 = 0.9516	890.02 ± 0.82
298.15 K, x1 = 1	909.1 ± 0.88
308.15 K, x1 = 0.0618	711.31 ± 0.26
308.15 K, x1 = 0.1007	715.02 ± 0.27
308.15 K, x1 = 0.165	721.49 ± 0.29
308.15 K, x1 = 0.1941	724.61 ± 0.3
308.15 K, x1 = 0.2601	732.22 ± 0.32
308.15 K, x1 = 0.2902	735.94 ± 0.34
308.15 K, x1 = 0.3585	744.82 ± 0.36
308.15 K, x1 = 0.4102	752.25 ± 0.38
308.15 K, x1 = 0.4567	759.29 ± 0.41
308.15 K, x1 = 0.4962	765.69 ± 0.43
308.15 K, x1 = 0.5559	776.15 ± 0.46
308.15 K, x1 = 0.5986	784.17 ± 0.49
308.15 K, x1 = 0.6514	794.91 ± 0.52
308.15 K, x1 = 0.699	805.43 ± 0.56
308.15 K, x1 = 0.7476	817.03 ± 0.6
308.15 K, x1 = 0.796	829.48 ± 0.64
308.15 K, x1 = 0.8477	844.14 ± 0.69
308.15 K, x1 = 0.8947	858.8 ± 0.74
308.15 K, x1 = 0.9504	877.94 ± 0.81
308.15 K, x1 = 1	896.91 ± 0.86
318.15 K, x1 = 0.0587	703.05 ± 0.26
318.15 K, x1 = 0.1139	708.17 ± 0.28
318.15 K, x1 = 0.141	710.78 ± 0.28
318.15 K, x1 = 0.2148	718.51 ± 0.31
318.15 K, x1 = 0.2624	723.9 ± 0.32
318.15 K, x1 = 0.3145	730.23 ± 0.34
318.15 K, x1 = 0.3621	736.39 ± 0.36
318.15 K, x1 = 0.394	740.75 ± 0.38
318.15 K, x1 = 0.4491	748.79 ± 0.4
318.15 K, x1 = 0.4889	755.06 ± 0.42
318.15 K, x1 = 0.5458	764.61 ± 0.45
318.15 K, x1 = 0.6011	774.72 ± 0.48
318.15 K, x1 = 0.6538	785.15 ± 0.52
318.15 K, x1 = 0.6972	794.52 ± 0.55
318.15 K, x1 = 0.7464	805.96 ± 0.59
318.15 K, x1 = 0.7904	816.99 ± 0.62
318.15 K, x1 = 0.8414	831.04 ± 0.67
318.15 K, x1 = 0.8899	845.62 ± 0.72
318.15 K, x1 = 0.9498	865.72 ± 0.79
318.15 K, x1 = 1	884.71 ± 0.84
328.15 K, x1 = 0.0562	694.8 ± 0.26
328.15 K, x1 = 0.0989	698.61 ± 0.27
328.15 K, x1 = 0.1503	703.45 ± 0.29
328.15 K, x1 = 0.1813	706.43 ± 0.3
328.15 K, x1 = 0.194	707.71 ± 0.3
328.15 K, x1 = 0.2651	715.48 ± 0.32
328.15 K, x1 = 0.3128	721.06 ± 0.34
328.15 K, x1 = 0.3582	726.72 ± 0.36
328.15 K, x1 = 0.4509	739.58 ± 0.4
328.15 K, x1 = 0.5045	747.9 ± 0.42
328.15 K, x1 = 0.5545	756.22 ± 0.45
328.15 K, x1 = 0.6005	764.42 ± 0.48
328.15 K, x1 = 0.6523	774.55 ± 0.51
328.15 K, x1 = 0.7484	795.44 ± 0.58
328.15 K, x1 = 0.7963	807.38 ± 0.62
328.15 K, x1 = 0.8469	821.01 ± 0.66
328.15 K, x1 = 0.9004	836.96 ± 0.72
328.15 K, x1 = 0.9501	853.63 ± 0.78
328.15 K, x1 = 1	872.22 ± 0.83

Reference: the NIST ThermoML archive (doi:10.1021/je4009415)
